According to US9345755B2, “Composition and methods for treating melanoma” (University of Virginia Patent Foundation, priority 2012, dated 2016):
“Also recorded” adds a separate entry of the source. Ends that are not written are not given here.

Experiments:
[1] = tested on: high-risk ovarian cancer patients; conditions: human, in vivo; cited from earlier work
[2] = Stability of peptide against alkaline hydrolysis at pH 12; type: physicochemical; conditions: pH 12, NaOH
Excerpt: It will be sterile-filtered.

Experimental for physchem: Vaccines are prepared by solubilization of each peptide in aqueous solutions, then sterile filtration, mixing, and vialing at 600 mcg per vial.
It is then sterile-filtered. […] It is then sterile-filtered.
The solubilization regimen was difficult to establish for the 8 long peptides.
These 3 sterile solutions will be combined and will be brought up to a concentration of 600 mcg/ml of each peptide using sterile water, lactated ringer's solution or normal saline solution. The pH of the mixture will be about 8-8.50, for a concentration of 600 micrograms per ml of each peptide.

Row | Substance | solubility (physchem) [mg/mL] | also measured
1 | LLHLAVIGALLAVGATKVPRNQDWLGVSRQL [Peptide 6] | 10 | –
2 | NY-ESO-179-108: long peptide, residues 79-108 of cancer-testis antigen NY-ESO-1 (GARGPESRLLEFYLAMPFATPMEAELARRS; UniProt P78358 79-108, looked up, fragment) | – | CD4 T cell responses after vaccination [1]: induces CD4 T cell responses
3 | SMHNALHIYMDGTMSQVQGSANDPIFLLHH [Peptide 3] | – | stability (hydrolysis/degradation) of peptide [2]: stable at this pH and is not hydrolyzed or degraded; also recorded: hydrolysis is not an issue and the peptide is intact
4 | VPLAHSSSAFTIMDQVPFSVSVSQLRALDG [Peptide 4] | 20 | –
